Results on two molecules are retold here after publication PMC5366886, “Structure of the Cyanuric Acid Hydrolase TrzD Reveals Product Exit Channel” (Scientific Reports, 2017).

For orientation: stoichiometry N means the number of molecules, sites or subunits per partner or assembly.

One data set addresses T1, TrzD (Enterobacter cloacae, UniProt P0A3V4).
T1 sequence (P0A3V4 1-370): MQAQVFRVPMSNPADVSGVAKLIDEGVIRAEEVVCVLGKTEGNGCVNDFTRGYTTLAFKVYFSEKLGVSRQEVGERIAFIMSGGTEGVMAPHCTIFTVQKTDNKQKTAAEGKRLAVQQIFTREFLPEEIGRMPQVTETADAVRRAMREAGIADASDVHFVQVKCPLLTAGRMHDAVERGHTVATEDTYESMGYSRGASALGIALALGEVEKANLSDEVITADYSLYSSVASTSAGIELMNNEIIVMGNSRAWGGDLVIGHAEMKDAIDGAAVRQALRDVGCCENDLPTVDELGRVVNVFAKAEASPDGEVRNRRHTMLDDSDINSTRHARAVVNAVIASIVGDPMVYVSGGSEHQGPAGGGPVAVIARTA
Description: co-crystallisation with substrate, X-ray […] A; co-product CO2 seen in density. The class given is biochemical. To be noted: 10 mM cyanuric acid in drop, BIS-TRIS pH 6.5, 20 °C; Mg2+ bound in domain 3; turned over, cyanuric acid itself not reported in the model.

Data set [1] concerns the molecule itself. Description: SEC + other: dynamic light scattering; purified TrzD in solution; conditions of this experiment not told.

Consider `O=c1[nH]c(=O)[nH]c(=O)[nH]1` [cyanuric acid, 1,3,5-triazinane-2,4,6-trione], for which the “co-crystallisation with substrate, X-ray 2.19 A; co-product CO2 seen in density” value on TrzD is “The protein was crystallized with its natural substrate cyanuric acid by hanging drop”.

B1: TrzD, a cyanuric acid hydrolase from Acidovorax citrulli (enzyme, UniProt P0A3V4 1-370, looked up)
chain: MQAQVFRVPMSNPADVSGVAKLIDEGVIRAEEVVCVLGKTEGNGCVNDFTRGYTTLAFKVYFSEKLGVSRQEVGERIAFIMSGGTEGVMAPHCTIFTVQKTDNKQKTAAEGKRLAVQQIFTREFLPEEIGRMPQVTETADAVRRAMREAGIADASDVHFVQVKCPLLTAGRMHDAVERGHTVATEDTYESMGYSRGASALGIALALGEVEKANLSDEVITADYSLYSSVASTSAGIELMNNEIIVMGNSRAWGGDLVIGHAEMKDAIDGAAVRQALRDVGCCENDLPTVDELGRVVNVFAKAEASPDGEVRNRRHTMLDDSDINSTRHARAVVNAVIASIVGDPMVYVSGGSEHQGPAGGGPVAVIARTA
notes: TrzD, cyanuric acid hydrolase of Acidovorax citrulli; full-length trzD gene in pET28b(+); 370 amino acids, ~39.5 kDa; source: E. coli BL21 (DE3), purified (Ni-NTA, Superdex-200 gel filtration); not shown: His-tag, N-terminal, kept
As to B1, the “stoichiometry N” value in data set [1] is 4.
